The term IC50 denotes the point on the concentration scale where inhibition reaches its midpoint.

The text below walks through data of BindingDB's records for doi:10.1021/cc100076k (Universidade Federal De SaO Carlo, 2010).

Molecules are shown by their SMILES.

The target in the assay is T1, Cathepsin L2 (Homo sapiens, UniProt O60911).
T1 sequence (O60911 whole entry): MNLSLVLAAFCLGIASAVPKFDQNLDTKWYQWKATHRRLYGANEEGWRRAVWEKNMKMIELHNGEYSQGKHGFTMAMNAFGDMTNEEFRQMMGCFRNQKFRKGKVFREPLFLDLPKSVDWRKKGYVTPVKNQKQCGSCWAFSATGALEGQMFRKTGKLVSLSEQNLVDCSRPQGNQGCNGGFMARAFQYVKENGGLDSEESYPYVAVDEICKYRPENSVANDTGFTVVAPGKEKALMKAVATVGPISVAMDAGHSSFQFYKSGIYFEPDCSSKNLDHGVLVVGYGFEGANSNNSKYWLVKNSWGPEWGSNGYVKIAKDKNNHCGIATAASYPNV
The assay can be described thus: Inhibition Activity Assay. The settings on record: pH 5.5; 27 °C. An excerpt:
Recombinant human cathepsin V was expressed and purified as described previously.
On to `COc1ccc(-c2cc(=O)c3cc(OC)ccc3o2)cc1` [6-methoxy-2-(4-methoxyphenyl)-1-benzopyran-4-one], for which the midpoint of inhibition, the IC50, lay at 12 µM. For `COc1ccc(C(=O)/C=C/c2ccc(OC)cc2OC)c(O)c1` [Flavonid, 5a] the value was > 50 µM; for `COc1cccc(Cl)c1/C=C/C(=O)c1ccc(F)cc1O` [Flavonid, 5b], > 50 µM; for `COc1ccc(-c2cc(=O)c3c(OC)cc(OC)cc3o2)c(OC)c1` [Flavonid, 6[2,2]], 19 µM.

With `COc1cc(OC)c2c(=O)cc(-c3ccc(OC)c(OC)c3OC)oc2c1` [Flavonid, 6[2,3]], the IC50 was > 50 µM. For `COc1cc(OC)c2c(=O)cc(-c3ccc(-c4ccccc4)cc3)oc2c1` [Flavonid, 6[2,6]] the value was > 50 µM; for `COc1ccc(-c2cc(=O)c3cc(F)ccc3o2)cc1` [Flavonid, 6[3,1]], 0.8 µM. `COc1ccc(-c2cc(=O)c3cc(F)ccc3o2)c(OC)c1` [Flavonid, 6[3,2]] yielded an IC50 of 1.6 µM. In the case of `COc1ccc(-c2cc(=O)c3cc(F)ccc3o2)c(OC)c1OC` [Flavonid, 6[3,3]], the IC50 amounted to 4.1 µM. `O=c1cc(-c2ccc(-c3ccccc3)cc2)oc2ccc(F)cc12` [Flavonid, 6[3,6]] had an IC50 of 2.9 µM. Regarding `COc1ccc(-c2cc(=O)c3cc(OC)ccc3o2)c(OC)c1` [Flavonid, 6[4,2]], the IC50 is > 50 µM.

As to `COc1ccc2oc(-c3ccc(OC)c(OC)c3OC)cc(=O)c2c1` [Flavonid, 6[4,3]], the IC50 was > 50 µM. For `COc1ccc2oc(-c3ccc(-c4ccccc4)cc3)cc(=O)c2c1` [Flavonid, 6[4,6]], the IC50 worked out at 19.2 µM. Turning to `COc1cccc(Cl)c1-c1cc(=O)c2ccc(F)cc2o1` [Flavonid, 6b], the IC50 is > 50 µM. Consider `COc1ccc(-c2cc(=O)c3cc(Br)ccc3o2)c(OC)c1` [Flavonid, 6d], for which 1.2 µM corresponded to half-maximal inhibition (IC50).

On to `O=c1cc(-c2c(F)cccc2Cl)oc2cc(F)ccc12` [Flavonid, 6e], for which the IC50 was > 50 µM.
